The test system of one series is Escherichia coli. The experiment in a line: microbe, parasite or virus in culture.
Another series addresses Cytochrome P450 2C19 (Homo sapiens, UniProt P33261). The experiment in a line: Cytochrome panel assay with activity outcomes. Panel member name: p450-cyp2c19 Compounds with AC50 equal or less than 10 uM are considered active. The class given is functional. The note with it: read-out: AC50.
The target in the next series is Cytochrome P450 2C9 (Homo sapiens, UniProt P11712).
Cytochrome P450 2C9, sequence (P11712 whole entry): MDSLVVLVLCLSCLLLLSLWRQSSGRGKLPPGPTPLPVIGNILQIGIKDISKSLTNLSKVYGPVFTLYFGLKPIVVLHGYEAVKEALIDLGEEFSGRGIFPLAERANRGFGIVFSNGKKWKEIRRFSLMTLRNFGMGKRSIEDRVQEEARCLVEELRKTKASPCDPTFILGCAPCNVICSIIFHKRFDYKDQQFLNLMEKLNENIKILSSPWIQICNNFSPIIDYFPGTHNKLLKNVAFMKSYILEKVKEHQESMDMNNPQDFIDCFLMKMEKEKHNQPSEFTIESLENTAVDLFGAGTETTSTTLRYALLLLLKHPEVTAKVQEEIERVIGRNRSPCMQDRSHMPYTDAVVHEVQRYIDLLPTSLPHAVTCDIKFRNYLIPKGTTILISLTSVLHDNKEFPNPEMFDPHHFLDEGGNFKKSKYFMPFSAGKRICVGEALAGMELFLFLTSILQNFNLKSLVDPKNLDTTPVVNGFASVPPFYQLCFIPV
Another series addresses Cytochrome P450 2D6 (Homo sapiens, UniProt P10635).
The target of series [1] is T1, Replicative DNA helicase DnaB (Mycobacterium tuberculosis, UniProt P9WMR3).
T1 sequence (P9WMR3 whole entry): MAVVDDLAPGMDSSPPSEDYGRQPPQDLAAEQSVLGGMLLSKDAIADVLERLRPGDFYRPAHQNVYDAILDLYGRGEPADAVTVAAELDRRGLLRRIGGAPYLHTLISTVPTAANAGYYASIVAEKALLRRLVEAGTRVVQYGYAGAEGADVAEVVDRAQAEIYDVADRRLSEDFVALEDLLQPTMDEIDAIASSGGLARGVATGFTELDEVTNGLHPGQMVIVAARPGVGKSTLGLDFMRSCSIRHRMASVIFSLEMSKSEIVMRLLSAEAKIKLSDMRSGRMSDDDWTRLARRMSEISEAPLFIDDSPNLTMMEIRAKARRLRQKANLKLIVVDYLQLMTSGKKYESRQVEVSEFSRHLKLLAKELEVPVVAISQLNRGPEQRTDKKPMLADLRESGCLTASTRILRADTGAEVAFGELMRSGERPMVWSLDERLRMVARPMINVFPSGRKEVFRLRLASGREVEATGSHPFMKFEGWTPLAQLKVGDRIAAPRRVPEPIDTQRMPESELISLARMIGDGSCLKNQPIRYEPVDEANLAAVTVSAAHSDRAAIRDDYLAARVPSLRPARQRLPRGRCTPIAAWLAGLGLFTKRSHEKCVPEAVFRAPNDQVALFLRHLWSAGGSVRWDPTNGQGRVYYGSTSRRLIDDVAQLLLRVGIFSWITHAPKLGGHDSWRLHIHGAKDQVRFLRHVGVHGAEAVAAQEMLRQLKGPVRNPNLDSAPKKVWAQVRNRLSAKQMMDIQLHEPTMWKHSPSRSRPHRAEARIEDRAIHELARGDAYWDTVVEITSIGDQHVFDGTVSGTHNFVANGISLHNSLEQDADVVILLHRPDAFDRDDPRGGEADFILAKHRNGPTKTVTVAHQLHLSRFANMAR
As to the kind of experiment: DnaB intein splicing inhibitors, dose response, biochemical, cell-free fluorescence (AID 449749). The format is functional.

A further series deals with T2, Protein RecA (Mycobacterium tuberculosis, UniProt P9WHJ3).
T2 sequence (P9WHJ3 whole entry): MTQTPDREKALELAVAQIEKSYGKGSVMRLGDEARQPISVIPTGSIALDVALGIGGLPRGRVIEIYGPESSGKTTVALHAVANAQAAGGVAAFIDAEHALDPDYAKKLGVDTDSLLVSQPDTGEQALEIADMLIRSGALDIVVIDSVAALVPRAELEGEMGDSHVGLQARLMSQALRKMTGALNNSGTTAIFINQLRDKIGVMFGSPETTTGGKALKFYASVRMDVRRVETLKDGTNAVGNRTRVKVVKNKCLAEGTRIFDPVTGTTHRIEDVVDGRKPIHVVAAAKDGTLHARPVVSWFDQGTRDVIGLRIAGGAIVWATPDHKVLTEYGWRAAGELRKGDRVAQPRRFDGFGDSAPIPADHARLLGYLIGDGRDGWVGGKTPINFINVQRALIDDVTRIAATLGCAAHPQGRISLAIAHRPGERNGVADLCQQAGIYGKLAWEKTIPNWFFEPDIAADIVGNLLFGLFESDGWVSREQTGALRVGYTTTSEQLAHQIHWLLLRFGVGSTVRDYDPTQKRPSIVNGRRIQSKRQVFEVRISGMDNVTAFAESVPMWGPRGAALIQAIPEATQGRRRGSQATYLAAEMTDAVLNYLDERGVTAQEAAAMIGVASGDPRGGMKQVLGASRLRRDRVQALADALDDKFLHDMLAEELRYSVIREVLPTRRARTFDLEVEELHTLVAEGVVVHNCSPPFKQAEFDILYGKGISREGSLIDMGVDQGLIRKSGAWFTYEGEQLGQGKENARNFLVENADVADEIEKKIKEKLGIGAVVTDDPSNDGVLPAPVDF
As to the kind of experiment: Fluorescence Cell-Free Homogeneous Dose Retest to Identify Inhibitors of RecA-Intein Splicing Activity. [Related pubchem assays (depositor defined):AID2097, AID2223, AID489010, AID492950]. The format is functional.

Series [2] concerns the target Glucose-6-phosphate 1-dehydrogenase (Homo sapiens, UniProt P11413). The experiment in a line: inhibition of Homo sapiens G6PD, dose series – biochemical, fluorescence, selectivity assay for P. falciparum G6PD inhibitor project, dose response (AID 504792). The format is functional.
The target in series [3] is T3, Short transient receptor potential channel 4 (Mus musculus, UniProt Q9QUQ5).
T3 sequence (Q9QUQ5 whole entry): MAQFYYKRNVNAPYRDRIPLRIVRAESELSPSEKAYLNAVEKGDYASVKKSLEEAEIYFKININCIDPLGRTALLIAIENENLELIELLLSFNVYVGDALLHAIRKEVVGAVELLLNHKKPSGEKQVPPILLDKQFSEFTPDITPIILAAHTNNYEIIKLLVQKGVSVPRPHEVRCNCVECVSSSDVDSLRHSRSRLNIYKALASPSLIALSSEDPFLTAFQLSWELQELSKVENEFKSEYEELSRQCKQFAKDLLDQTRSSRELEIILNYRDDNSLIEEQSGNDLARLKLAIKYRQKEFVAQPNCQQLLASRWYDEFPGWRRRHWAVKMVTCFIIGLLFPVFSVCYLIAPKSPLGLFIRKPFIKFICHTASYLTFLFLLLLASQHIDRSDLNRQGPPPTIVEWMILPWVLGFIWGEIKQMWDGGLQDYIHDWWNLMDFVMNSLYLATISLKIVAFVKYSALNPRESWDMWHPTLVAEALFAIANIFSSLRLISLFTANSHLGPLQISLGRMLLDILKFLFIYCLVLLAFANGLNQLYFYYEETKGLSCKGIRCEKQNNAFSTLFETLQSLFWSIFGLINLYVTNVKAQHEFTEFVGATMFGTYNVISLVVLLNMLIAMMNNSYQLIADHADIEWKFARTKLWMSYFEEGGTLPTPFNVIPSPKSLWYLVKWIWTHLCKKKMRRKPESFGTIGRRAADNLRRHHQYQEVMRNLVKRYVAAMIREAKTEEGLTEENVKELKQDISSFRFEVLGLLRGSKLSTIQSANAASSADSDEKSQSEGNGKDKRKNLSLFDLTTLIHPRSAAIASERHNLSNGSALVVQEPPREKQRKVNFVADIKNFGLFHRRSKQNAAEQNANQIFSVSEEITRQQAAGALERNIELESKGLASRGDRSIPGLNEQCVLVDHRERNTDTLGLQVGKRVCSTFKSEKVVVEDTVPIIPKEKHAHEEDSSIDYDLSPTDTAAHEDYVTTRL
The experiment in a line: block of DAMGO-driven TRPC4 calcium entry – cell-based, HEK293 TRPC4/mu-opioid, Fluo-4 calcium, dose response (AID 434942).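 Note: potency of inhibitors blocking the TRPC4 calcium response.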 The format is functional.

Series [4] deals with DNA dC->dU-editing enzyme APOBEC-3G (Homo sapiens, UniProt Q9HC16). The experiment in a line: Dose Response confirmation of small molecule APOBEC3G DNA Deaminase Inhibitors via a fluorescence-based single-stranded DNA deaminase assay. [Related pubchem assays (depositor defined):AID493012, AID493028]. The format is functional.
DNA dC->dU-editing enzyme APOBEC-3G, sequence (Q9HC16 whole entry): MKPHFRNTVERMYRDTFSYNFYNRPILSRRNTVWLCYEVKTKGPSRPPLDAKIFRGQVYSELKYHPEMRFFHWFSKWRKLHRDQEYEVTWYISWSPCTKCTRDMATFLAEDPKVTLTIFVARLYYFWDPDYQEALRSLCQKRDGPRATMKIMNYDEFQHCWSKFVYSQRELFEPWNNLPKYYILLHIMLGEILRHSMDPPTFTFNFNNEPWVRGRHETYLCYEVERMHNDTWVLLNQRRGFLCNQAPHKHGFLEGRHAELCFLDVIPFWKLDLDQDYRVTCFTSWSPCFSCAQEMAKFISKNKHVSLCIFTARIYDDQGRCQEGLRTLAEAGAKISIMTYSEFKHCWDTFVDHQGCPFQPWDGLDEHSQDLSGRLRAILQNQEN
Series [5] deals with T4, Corticotropin-releasing factor receptor 2/Corticotropin-releasing factor-binding protein (Homo sapiens, UniProt P24387+Q13324).
T4 sequence (Q13324 whole entry): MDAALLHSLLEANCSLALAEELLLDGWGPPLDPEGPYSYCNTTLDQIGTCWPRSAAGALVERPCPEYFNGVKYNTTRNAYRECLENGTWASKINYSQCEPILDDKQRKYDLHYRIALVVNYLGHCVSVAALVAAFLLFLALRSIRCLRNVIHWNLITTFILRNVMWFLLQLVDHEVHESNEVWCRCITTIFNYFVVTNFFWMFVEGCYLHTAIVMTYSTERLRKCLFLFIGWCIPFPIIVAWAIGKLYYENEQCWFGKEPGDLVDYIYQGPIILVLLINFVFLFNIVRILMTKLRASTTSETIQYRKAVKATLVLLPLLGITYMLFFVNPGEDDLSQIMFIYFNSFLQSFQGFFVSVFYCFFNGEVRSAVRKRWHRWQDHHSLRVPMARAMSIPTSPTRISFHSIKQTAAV
T4 sequence (P24387 whole entry): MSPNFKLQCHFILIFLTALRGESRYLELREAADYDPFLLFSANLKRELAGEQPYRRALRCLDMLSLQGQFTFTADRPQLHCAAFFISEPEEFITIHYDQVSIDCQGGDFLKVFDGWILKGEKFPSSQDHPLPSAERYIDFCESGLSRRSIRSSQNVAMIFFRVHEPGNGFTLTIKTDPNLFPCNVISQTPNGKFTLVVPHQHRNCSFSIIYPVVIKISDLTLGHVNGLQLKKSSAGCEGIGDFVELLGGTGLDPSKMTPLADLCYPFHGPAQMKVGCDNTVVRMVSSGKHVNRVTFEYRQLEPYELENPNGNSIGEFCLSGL
The experiment in a line: activators of CRF receptor 2 with binding protein – uHTS hits, confirmation (AID 602473). The class given is functional. The settings on record: read-out: EC50_Mean.

A further series addresses Cytochrome P450 3A4 (Homo sapiens, UniProt P08684).
Series [6] has as its target T4, Corticotropin-releasing factor receptor 2/Corticotropin-releasing factor-binding protein. As to the kind of experiment: Dose Response confirmation of uHTS hits for small molecule antagonists of the CRF-binding protein and CRF-R2 receptor complex. The class given is functional. The note with it: read-out: IC50_Mean.
Series [7] is described as follows: viability of HCT116 lacking mutant beta-catenin – cell-based, human colon tumor, dose response (AID 1045).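 Note: HCT116 colon tumor cells with beta catenin knocked out; cells exposed to compound for 60 hours.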 The format is functional.
Series [8] is described as follows: viability of PTEN-deleted HCT116 cells – cell-based, HCT116 PTEN knockout, dose response (AID 1047).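 Note: HCT116 colon tumor cells with PTEN knocked out; cells exposed to compound for 60 hours before readout; potency for loss of cell viability measured by luminescence.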 The format is functional.

In general, AC50 refers to the concentration at which the activity in the assay is half-maximal.

The source made the active and inactive calls.

Cytochrome P450 2C19, sequence (P33261 whole entry): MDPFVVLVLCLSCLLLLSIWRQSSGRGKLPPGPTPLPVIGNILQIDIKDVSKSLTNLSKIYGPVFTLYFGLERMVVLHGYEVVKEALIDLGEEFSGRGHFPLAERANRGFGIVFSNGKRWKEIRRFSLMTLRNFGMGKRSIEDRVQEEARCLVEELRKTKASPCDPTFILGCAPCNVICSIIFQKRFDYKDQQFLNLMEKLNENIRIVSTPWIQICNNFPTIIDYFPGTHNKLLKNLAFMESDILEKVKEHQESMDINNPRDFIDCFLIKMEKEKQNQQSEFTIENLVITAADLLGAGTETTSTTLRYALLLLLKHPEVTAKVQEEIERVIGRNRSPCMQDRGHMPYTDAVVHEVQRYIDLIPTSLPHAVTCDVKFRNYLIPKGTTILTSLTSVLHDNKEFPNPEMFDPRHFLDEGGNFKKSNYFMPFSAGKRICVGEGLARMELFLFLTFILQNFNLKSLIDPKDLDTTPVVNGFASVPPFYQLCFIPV
Cytochrome P450 2D6, sequence (P10635 whole entry): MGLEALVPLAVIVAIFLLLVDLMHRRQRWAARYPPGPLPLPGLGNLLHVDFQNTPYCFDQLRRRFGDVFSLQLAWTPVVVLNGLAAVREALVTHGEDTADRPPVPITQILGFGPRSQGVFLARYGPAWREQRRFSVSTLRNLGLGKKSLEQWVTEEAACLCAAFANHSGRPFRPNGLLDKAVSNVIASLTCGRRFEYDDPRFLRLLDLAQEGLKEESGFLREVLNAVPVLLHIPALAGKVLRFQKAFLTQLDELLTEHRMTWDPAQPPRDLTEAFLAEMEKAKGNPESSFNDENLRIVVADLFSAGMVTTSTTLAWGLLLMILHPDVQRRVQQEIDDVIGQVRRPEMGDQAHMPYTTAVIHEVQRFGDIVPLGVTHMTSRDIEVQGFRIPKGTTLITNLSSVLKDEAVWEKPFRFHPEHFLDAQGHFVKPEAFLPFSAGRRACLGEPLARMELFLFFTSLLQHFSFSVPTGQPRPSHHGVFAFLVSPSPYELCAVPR
Glucose-6-phosphate 1-dehydrogenase, sequence (P11413 whole entry): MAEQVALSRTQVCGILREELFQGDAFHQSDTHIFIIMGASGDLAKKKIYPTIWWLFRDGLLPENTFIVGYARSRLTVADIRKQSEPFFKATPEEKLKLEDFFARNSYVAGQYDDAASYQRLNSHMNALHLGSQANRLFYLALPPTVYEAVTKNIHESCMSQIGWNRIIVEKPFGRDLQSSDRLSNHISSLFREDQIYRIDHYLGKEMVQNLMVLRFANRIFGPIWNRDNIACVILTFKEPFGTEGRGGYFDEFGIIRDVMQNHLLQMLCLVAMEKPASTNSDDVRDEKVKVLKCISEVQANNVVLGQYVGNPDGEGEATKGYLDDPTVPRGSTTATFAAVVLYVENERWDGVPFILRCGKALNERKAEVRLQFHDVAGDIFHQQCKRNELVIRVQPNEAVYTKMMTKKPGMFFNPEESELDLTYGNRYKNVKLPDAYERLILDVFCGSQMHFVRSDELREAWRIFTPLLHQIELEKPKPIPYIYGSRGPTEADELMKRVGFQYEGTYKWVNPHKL
Cytochrome P450 3A4, sequence (P08684 whole entry): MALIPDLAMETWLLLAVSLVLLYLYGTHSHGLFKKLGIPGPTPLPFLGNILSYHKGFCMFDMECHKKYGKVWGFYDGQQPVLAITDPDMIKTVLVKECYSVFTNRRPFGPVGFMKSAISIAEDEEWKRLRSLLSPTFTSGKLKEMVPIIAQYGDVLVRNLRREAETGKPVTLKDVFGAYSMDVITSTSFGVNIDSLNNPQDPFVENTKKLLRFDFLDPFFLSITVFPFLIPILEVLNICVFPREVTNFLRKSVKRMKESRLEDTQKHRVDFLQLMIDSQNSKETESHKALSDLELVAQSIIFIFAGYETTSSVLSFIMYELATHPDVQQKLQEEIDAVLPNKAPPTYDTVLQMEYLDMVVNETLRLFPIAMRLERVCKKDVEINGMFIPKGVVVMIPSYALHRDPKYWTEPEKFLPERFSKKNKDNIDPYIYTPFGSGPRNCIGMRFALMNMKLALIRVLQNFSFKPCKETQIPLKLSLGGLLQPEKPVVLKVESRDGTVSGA

Take `O=C(c1cccnc1)C1CCCN(Cc2nc(Cc3ccccc3)no2)C1` (configuration not stated): the AC50 with Escherichia coli was 42 µM (active).

Consider `CNc1nc(-c2cccnc2)nc2ccccc12`, for which the AC50 on Cytochrome P450 2C19 is 39.8 µM (inconclusive); on Cytochrome P450 2C9, “inconclusive”; on Cytochrome P450 2D6, 39.8 µM (inconclusive).

Take `CCNc1ccccc1CP(=O)(c1ccccc1)c1ccccc1O` (configuration not stated): the AC50 in series [1] is 10.4 µM (active). Further, the EC50 at Protein RecA was 1.25 µM (active). In addition, in series [2], the IC50 was 42.6 µM (inactive).

As for `CN(C)/C=N/c1ncc(C(=O)c2ccc3ccccc3c2)s1`, the AC50 result at Cytochrome P450 2C9 was “inconclusive”.

For the compound `OCC1(CCCc2ccccc2)CCN(Cc2cc(F)ccc2F)CC1`, in [3], the EC50 was 4.22 µM (active).

Take `Oc1nc(N2CCCCC2)nc2c1CCCC2`: the AC50 in the series with Escherichia coli was 24.9 µM (active).

As to `COc1ccc2[nH]c(NCc3ccccc3)nc2c1`, the EC50 in [3] is 1.68 µM (active).

On to `Sc1nc2ccccc2n1Cc1ccccc1`, for which the IC50 in series [4] was 37.2 µM (active).

`O=C(Nc1ccc(Cl)c(C(F)(F)F)c1)NC1CC2CCCC(C1)N2C1CC1` (configuration not stated): the AC50 in the series with Escherichia coli is 25.7 µM (active).

`O=C(CCCSc1ccc(Cl)cc1)Nc1cc(S(=O)(=O)N2CCOCC2)ccc1O`: in [4], the IC50 is 33.2 µM (active).

Consider `C[C@H](Br)C(=O)c1ccc2cc(Br)c3ccccc3c2c1`, for which the AC50 result at Cytochrome P450 2C9 is reported as “inconclusive”.

As to `COc1ccc(NC(=O)C(=O)NNC(=O)c2cccs2)c(OC)c1`, the AC50 is 39.8 µM (inconclusive) on Cytochrome P450 2C19, “inconclusive” on Cytochrome P450 2C9 and 17.8 µM (inconclusive) at Cytochrome P450 3A4. Further, in series [5], the EC50 is > 53 µM (inactive). Further, the IC50 in series [6] was > 47.1 µM (inactive).

Consider `CC(NC(=O)CSc1nc2sc3c(c2c(=O)n1-c1ccccc1)CCCC3)c1ccccc1` (configuration not stated), for which, in the series on Escherichia coli, the AC50 was 107 µM (active).

For the compound `CCCCn1c(NCCO)nc2ccccc21`, in series [3], the EC50 is 1.68 µM (active).

Regarding `COc1ccc(NC(=O)CCSc2cc(C)c3ccccc3n2)cc1`, the AC50 result on Cytochrome P450 2C9 is “inconclusive”; on Cytochrome P450 2D6, 31.6 µM (inconclusive).

For the compound `Cc1ccc(-c2nc3ccccc3s2)cc1NC(=S)NC(=O)c1cccc2ccccc12`, the AC50 in the series with Escherichia coli is 36.4 µM (active). Further, the EC50 is 12.1 µM (active) in series [7] and 14.1 µM (active) in series [8].

Values taken from ChEMBL document CHEMBL1201862, “PubChem BioAssay data set” (2004).
